Active and inactive are the calls of the source. The rule behind the calls is not given here.
What was measured:
[1] = system: K562; assay: Antiproliferative activity against human K562 cells assessed as cell growth inhibition measured after 48 hrs by MTT assay; type: functional, cell-based; conditions: K562, 48 h
[2] = Inhibition of porcine brain tubulin polymerization assessed as reduction in tubulin assembly at 37 degreeC measured after 40 mins in presence of GTP by turbidimetric analysis; parameters: species or system Sus scrofa
[3] = biological target: T1, Tubulin beta (Homo sapiens) (UniProt P68371+Q9H4B7+Q13509+P04350+Q3ZCM7+P07437+Q13885+Q9BVA1+Q9BUF5+A6NNZ2); assay: Inhibition of N,N'-Ethylenebis(iodoacetamide) binding to beta-tubulin colchicine binding site in human K562 cells assessed as reduction in EBI/beta-tubulin adduct formation at 1 to 10 uM preincubated for 2.5 hrs followed by EBI addition and measured after 1.5 hrs by Western blot analysis; type: cell-based; conditions: dose 1-10 µM, time 4.0 hrs
[4] = system: K562; assay: Cell cycle arrest in human K562 cells assessed as increase in cell accumulation at G2/M phase at < 30 nM measured after 18 hrs by propidium iodide/RNase FACSCalibur staining based flow cytometry; type: functional; conditions: dose nM <30, time 18.0 hrs
[5] = system: K562; assay: Cell cycle arrest in human K562 cells assessed as increase in cell accumulation at G2/M phase measured after 18 hrs by propidium iodide/RNase FACSCalibur staining based flow cytometry; type: functional; conditions: dose 0.003-1 µmol/L
[6] = system: SK-N-AS; assay: Antiproliferative activity against human SK-N-AS cells assessed as cell growth inhibition measured after 72 hrs by sulforhodamine B assay; type: functional
[7] = Cytotoxicity against human IMR-90 cells assessed as cell growth inhibition measured after 72 hrs by sulforhodamine B assay; type: cell-based
[8] = system: BXPC-3; assay: Antiproliferative activity against human BXPC-3 cells assessed as cell growth inhibition measured after 72 hrs by sulforhodamine B assay; type: functional
[9] = system: MG-63; assay: Antiproliferative activity against human MG-63 cells assessed as cell growth inhibition measured after 72 hrs by sulforhodamine B assay; type: functional
[10] = system: HT-1080; assay: Antiproliferative activity against human HT-1080 cells assessed as cell growth inhibition measured after 72 hrs by sulforhodamine B assay; type: functional
[11] = system: 5637; assay: Antiproliferative activity against human 5637 cells assessed as cell growth inhibition measured after 72 hrs by sulforhodamine B assay; type: functional
[12] = system: HT-29; assay: Antiproliferative activity against human HT-29 cells assessed as cell growth inhibition measured after 72 hrs by sulforhodamine B assay; type: functional
[13] = system: PANC-1; assay: Antiproliferative activity against human PANC-1 cells assessed as cell growth inhibition measured after 72 hrs by sulforhodamine B assay; type: functional
[14] = Antiproliferative activity against human RDES cells assessed as cell growth inhibition measured after 72 hrs by sulforhodamine B assay; type: functional; conditions: RD-ES
[15] = system: Ramos; assay: Antiproliferative activity against human Ramos cells assessed as cell growth inhibition measured after 72 hrs by sulforhodamine B assay; type: functional
[16] = system: DU-145; assay: Antiproliferative activity against human DU-145 cells assessed as cell growth inhibition measured after 72 hrs by sulforhodamine B assay; type: functional
[17] = system: L-363; assay: Antiproliferative activity against human L-363 cells assessed as cell growth inhibition measured after 72 hrs by sulforhodamine B assay; type: functional
[18] = system: MV4-11; assay: Antiproliferative activity against human MV4-11 cells assessed as cell growth inhibition measured after 72 hrs by sulforhodamine B assay; type: functional
[19] = system: NCI-H460; assay: Antiproliferative activity against human NCI-H460 cells assessed as cell growth inhibition measured after 72 hrs by sulforhodamine B assay; type: functional
[20] = system: SNB-75; assay: Antiproliferative activity against human SNB-75 cells assessed as cell growth inhibition measured after 72 hrs by sulforhodamine B assay; type: functional
[21] = system: Ca-Ski; assay: Antiproliferative activity against human Ca-Ski cells assessed as cell growth inhibition measured after 72 hrs by sulforhodamine B assay; type: functional
[22] = Cytotoxicity against human PBMC cells assessed as cell growth inhibition measured after 72 hrs by sulforhodamine B assay; type: cell-based
[23] = biological target: T1, Tubulin beta (Homo sapiens); assay: Inhibition of N,N'-Ethylenebis(iodoacetamide) binding to beta-tubulin colchicine binding site in human K562 cells assessed as reduction in EBI/beta-tubulin adduct formation preincubated for 2.5 hrs followed by EBI addition and measured after 1.5 hrs by Western blot analysis relative to control; type: cell-based; conditions: time 4.0 hrs, concentration not given here
[24] = system: K562; assay: Induction of apoptosis in human K562 cells at 3 uM measured after 48 hrs by Annexin V-FITC/7-AAD staining based flow cytometric analysis; type: functional, cell-based
[25] = system: K562; assay: Induction of apoptosis in human K562 cells at 30 nM measured after 48 hrs by Annexin V-FITC/7-AAD staining based flow cytometric analysis; type: functional, cell-based

Compound | IC50 [1] [nM] | IC50 [2] [nM] | further results
COc1ccc(C(=O)n2c3ccccc3c(=O)c3ccccc32)cc1OCc1ccccc1 | > 10000 | > 10000 | 
N#Cc1cccc(N2CCN(C(=O)n3c4ccccc4c(=O)c4ccccc43)CC2)c1 | 45 | 520 | 
COc1ccccc1N1CCN(C(=O)n2c3ccccc3c(=O)c3cccnc32)CC1 | 190 | 1340 | 
O=C(N1CCN(c2cccc([N+](=O)[O-])c2)CC1)n1c2ccccc2c(=O)c2ccccc21 | 200 | 560 | 
COc1ccccc1N1CCN(C(=O)n2c3ccccc3c(=O)c3ccccc32)CC1 | 55 | 530 | 
COc1ccc2c(c1)c(=O)c1cc(C#N)ccc1n2C(=O)N1CCN(c2ccccc2OC)CC1 | > 10000 | > 10000 | 
Nc1cccc(N2CCN(C(=O)n3c4ccccc4c(=O)c4ccccc43)CC2)c1 | 900 | 1300 | 
COc1cccc(N2CCN(C(=O)n3c4ccccc4c(=O)c4cc([N+](=O)[O-])ccc43)CC2)c1 | > 10000 | 4200 | 
COc1cccc(N2CCN(C(=O)n3c4ccc(C#N)cc4c(=O)c4cc(OC)ccc43)CC2)c1 | > 10000 | > 10000 | 
COc1cccc(N2CCN(C(=O)n3c4ccccc4c(=O)c4cc(N)ccc43)CC2)c1 | 440 | 1250 | 
COc1ccccc1N1CCN(C(=O)n2c3ccccc3c(=O)c3cnccc32)CC1 | 670 | 3900 | 
COc1ccccc1N1CCN(C(=O)n2c3ccccc3c(=O)c3cc(C#N)ccc32)CC1 | 830 | 3400 | 
COc1ccc(C(=O)n2c3ccccc3c(=O)c3cc(C#N)ccc32)cc1 | 1300 | 1700 | 
COc1cccc(N2CCN(C(=O)n3c4ccccc4c(=O)c4cc(C#N)ccc43)CC2)c1 | 190 |  | 
COc1ccccc1C(=O)n1c2ccccc2c(=O)c2ccccc21 | 3900 | 5500 | 
COc1ccc(C(=O)n2c3ccccc3c(=O)c3ccccc32)cc1OC | > 10000 | > 10000 | 
COc1ccc(C(=O)n2c3ccccc3c(=O)c3ccccc32)cc1O | 1300 | 680 | 
O=C(c1ccccc1)n1c2ccccc2c(=O)c2ccccc21 | > 10000 | > 10000 | 
COc1ccc2c(c1)c(=O)c1ccccc1n2C(=O)N1CCN(c2ccccc2OC)CC1 | 1100 | 3500 | 
O=C(N1CCN(c2ccccc2)CC1)n1c2ccccc2c(=O)c2ccccc21 | 390 | 900 | 
CC[C@]1(O)C[C@H]2CN(CCc3c([nH]c4ccccc34)[C@@](C(=O)OC)(c3cc4c(cc3OC)N(C)[C@H]3[C@@](O)(C(=O)OC)[C@H](OC(C)=O)[C@]5(CC)C=CCN6CC[C@]43[C@@H]65)C2)C1 | 12 | 130 | 
COc1ccc(N2CCN(C(=O)n3c4ccccc4c(=O)c4ccccc43)CC2)cc1 | > 10000 | > 10000 | 

Compound | IC50 [1] [nM] | IC50 [2] [nM] | further results
COc1cccc(N2CCN(C(=O)n3c4ccccc4c(=O)c4cccnc43)CC2)c1 | 32 | 450 | 
O=C(N1CCN(c2ccccc2Cl)CC1)n1c2ccccc2c(=O)c2ccccc21 | 4800 | 7100 | 
COc1cc(N2CCN(C(=O)n3c4ccccc4c(=O)c4ccccc43)CC2)cc(OC)c1OC | > 10000 | > 10000 | 
O=C(N1CCN(c2cccc(Cl)c2)CC1)n1c2ccccc2c(=O)c2ccccc21 | 38 | 600 | 
COc1ccc(N2CCN(C(=O)n3c4ccccc4c(=O)c4ccccc43)CC2)c(OC)c1 | 3000 | 4700 | 
COc1ccccc1N1CCN(C(=O)n2c3ccccc3c(=O)c3cc([N+](=O)[O-])ccc32)CC1 | > 10000 | > 10000 | 
COc1cccc(N2CCN(C(=O)n3c4ccccc4c(=O)c4ccccc43)CC2)c1 | 26 | 330 | inhibition [3]: Active; Activity [4]: Active; Activity [5]: Dose-dependent effect; GI50 [6]: 1.3 nM; GI50 at 72 h [7]: 1.4 nM; GI50 [8]: 1.9 nM; GI50 [9]: 2 nM; GI50 [10]: 2.1 nM; GI50 [11]: 2.1 nM; GI50 [12]: 2.1 nM; GI50 [13]: 2.1 nM; GI50 [14]: 29.8 nM; GI50 [15]: 18 nM; GI50 [16]: 17.9 nM; GI50 [17]: 14.8 nM; GI50 [18]: 13.5 nM; GI50 [19]: 13.2 nM; GI50 [20]: 12.4 nM; GI50 [21]: 12.3 nM; GI50 at 72 h [22]: > 10000 nM
O=C(N1CCN(c2cccnc2)CC1)n1c2ccccc2c(=O)c2ccccc21 | 620 | 2900 | 
COc1ccc(C(=O)n2c3ccccc3c(=O)c3ccccc32)cc1 | 1300 | 1600 | inhibition [23]: 100%; Activity [5]: Dose-dependent effect; Activity [24]: Active
COc1ccccc1N1CCN(C(=O)n2c3ccccc3c(=O)c3cc(N)ccc32)CC1 | 1300 | 3100 | 
O=C(N1CCN(c2ccc([N+](=O)[O-])cc2)CC1)n1c2ccccc2c(=O)c2ccccc21 | > 10000 | > 10000 | 
COc1ccc(OC)c(N2CCN(C(=O)n3c4ccccc4c(=O)c4ccccc43)CC2)c1 | 60 | 440 | 
COC(=O)Nc1nc2cc(C(=O)c3cccs3)ccc2[nH]1 [NOCODAZOLE] | 220 | 760 | 
Nc1ccc(N2CCN(C(=O)n3c4ccccc4c(=O)c4ccccc43)CC2)cc1 | > 10000 | > 10000 | 
O=C(N1CCN(c2cccc(F)c2)CC1)n1c2ccccc2c(=O)c2ccccc21 | 89 | 710 | 
COc1cccc(N2CCN(C(=O)n3c4ccccc4c(=O)c4cnccc43)CC2)c1 | 230 | 720 | 
COc1cccc(C(=O)n2c3ccccc3c(=O)c3ccccc32)c1 | > 10000 | > 10000 | 
O=C(N1CCN(c2ccc(Cl)cc2)CC1)n1c2ccccc2c(=O)c2ccccc21 | 6100 | > 10000 | 
COc1cc2c(c(OC)c1OC)-c1ccc(OC)c(=O)cc1[C@@H](NC(C)=O)CC2 [COLCHICINE] | 13 |  | Activity [25]: Active
COc1ccc(C(=O)n2c3ccccc3c(=O)c3cc(OC)ccc32)cc1 | 3900 | 1400 | 
O=C(N1CCN(c2cccc(Br)c2)CC1)n1c2ccccc2c(=O)c2ccccc21 | 39 | 690 | 
COc1cccc(N2CCN(C(=O)n3c4ccccc4c(=O)c4cc(OC)ccc43)CC2)c1 | 330 | 820 | 

— ChEMBL document CHEMBL4680289, “10-(4-Phenylpiperazine-1-carbonyl)acridin-9(10H)-ones and related compounds: Synthesis, antiproliferative activity and inhibition of tubulin polymerization” (Bioorg Med Chem Lett, 2021)
